Laboratory results reported in US10231985B2, “Compounds and compositions comprising such compounds for the prevention or treatment of dyslipidaemias” (CENTRE NATIONAL DE LA RECHERCHE SCIENTIFIQUE, priority 2013, dated 2019).

Test system: BRIN-BD11 pancreatic β-cells
Assay: Cell viability of palmitic acid-lipointoxicated pancreatic β-cells (propidium iodide, flow cytometry)
Assay type: cell-based, rat
Details: BRIN-BD11, 200 μM palmitic acid
Method: Pancreatic β-cells, BRIN-BD11, were grown under control conditions or in the presence of an exogenous source of saturated fatty acid (200 μM palmitic acid), as described by Dhayal & Morgan (2011), in order to generate lipointoxication conditions, with or without the addition of OAG. A) The proportion of dead cells was estimated in the absence (control) or presence of palmitic acid, for increasing concentrations of OAG. B) eIF2α phosphorylation levels were also analyzed under the various conditions by Western blot, in the presence or absence (Ø) of OAG, and were normalized to total eIF2α.
The lipid species are prepared in ethanol before being complexed with bovine serum albumin (BSA, first depleted of fatty acids) by incubation for 1 hour at 37° C. The palmitic acid stock solution is obtained by adding one volume of ethanol before the whole is heated to 70° C. for homogenization. OAG and LPA solutions are prepared in 100% ethanol at room temperature. For the incubations of mammalian cells, the final BSA and ethanol concentrations in the culture medium are kept at 1% and 0.5% (w/v), respectively.
The rat pancreatic β-cell line (BRIN-BD11) is grown in complete RPMI-1640 medium, containing 11 mM glucose and supplemented with 10% (v/v) fetal calf serum (FCS), 2 mM L-glutamine, 100 U/ml penicillin and 100 μg/ml streptomycin. For each experiment, the cells are first seeded at a density of 0.5×10^5 cells/ml in 6-well plates for 24 hours. Thereafter, the complete medium is replaced by an equivalent lacking FCS but containing the lipid reagents of interest, at the desired concentrations, complexed with BSA. Under the control conditions, identical amounts of BSA and ethanol are then used. […] After incubation on ice for 10 minutes, the samples thus obtained are analyzed by flow cytometry. A Beckman Coulter EPICS XL MCL is used for the quantification, an FL3 channel is used to detect the emissions of the PI intercalated in the DNA, and the analysis is carried out using the EXPO32 ADC software (Applied Cytometry Systems, V 1.1 build 207).

Question: Which “Apoptosis / proportion of dead cells of pancreatic β-cells” value does the source give for `CCCCCCCC/C=C\CCCCCCCC(=O)OC[C@H](CO)OC(C)=O` [OAG, 1-oleoyl-2-acetyl-sn-glycerol] here?
Answer: The value was “prevents apoptosis”.
